The source made the active and inactive calls. No cut-off for these calls is given here.
Columns and labels:
[1] = Antagonist activity at rat AMPA receptor expressed in Xenopus oocytes assessed as reduction of kainate-induced membrane current at 100 uM relative to kainate; assay type: functional, Oocyte; parameters: scale not given: the % may be the effect or the level left
[2] = Antagonist activity at rat KA receptor expressed in Xenopus oocytes assessed as reduction of kainate-induced membrane current at 100 uM relative to kainate; assay type: functional, Oocyte; parameters: scale not given: the % may be the effect or the level left
Oocyte [3] = assay: Agonist activity at rat AMPA receptor expressed in Xenopus oocytes at 100 uM; assay type: functional, cell-based
Oocyte [4] = assay: Agonist activity at rat KA receptor expressed in Xenopus oocytes at 100 uM; assay type: functional, cell-based

## Cc1cccc([C@H]2CC[C@](C(=O)O)([C@@H](O)[C@@H](N)C(=O)O)N2)c1
[1]
  Activity: 75%
[2]
  Activity: 75%
Oocyte [3]
  Activity: inactive
Oocyte [4]
  Activity: inactive

## Cc1ccccc1[C@H]1CC[C@](C(=O)O)([C@@H](O)[C@@H](N)C(=O)O)N1
[1]
  Activity: 49%
[2]
  Activity: 49%
Oocyte [3]
  Activity: inactive
Oocyte [4]
  Activity: inactive

## N[C@@H](C(=O)O)[C@H](O)[C@@]1(C(=O)O)CC[C@H](c2ccccc2)N1
[1]
  Activity: 72%
[2]
  Activity: 72%
Oocyte [3]
  Activity: inactive
Oocyte [4]
  Activity: inactive

## Cc1ccc([C@H]2CC[C@](C(=O)O)([C@@H](O)[C@@H](N)C(=O)O)N2)cc1
[1]
  Activity: 83%
[2]
  Activity: 83%
Oocyte [3]
  Activity: inactive
Oocyte [4]
  Activity: inactive

— ChEMBL document CHEMBL1139270, “Design, synthesis, and biological evaluation of a scaffold for iGluR ligands based on the structure of (-)-kaitocephalin” (2009)
